Experimental data taken from article PMC8465649, “Semaphorin 3A—Glycosaminoglycans Interaction as Therapeutic Target for Axonal Regeneration” (Pharmaceuticals, 2021).

What was measured:
[1] = test system: SCTWT–heparin interaction; assay: 2D 1H-15N HSQC CSP: displacement of SCTWT from dp14 heparin; assay type: binding, human; settings: 0.2 mM SCTWT, 0.05 mM dp14 heparin, 4 mM CSIC02, pH 4.5
Protocol: NMR competition experiments involved the acquisition of 1D-^1H WaterLOGSY or spin-lock filtered NMR spectra. Thus, FS2 peptide is displaced from heparin agarose resin by CSIC02 (1:1 peptoid/FS2, both 1 mM), but not by CSIC03 (Figure S15). […] We reasoned that if CSIC02 was able to interact with GAG and displace FS2/FS3 basic peptides, it may also interfere with SCTWT–heparin interaction. To investigate if CSIC02 could displace SCTWT from heparin dp14 and to define the SCTWT residues affected, 2D NMR ^1H-^15N HSQC CSP experiments were used. Figure 8a illustrates the chemical shift effects of CSIC02 addition to a sample of SCTWT containing dp14 heparin. […] In Figure 8b, we display the chemical shift perturbation of SCTWT NMR spectra in the presence of dp14 and CSIC02. Thus, as the two CSP plots in Figure 4b and Figure 8b were calculated using as reference SCTWT alone in solution, we can compare them directly. […]
Figure 8 (a) Overlay of [^1H-^15N]-HSQC spectra of 0.2 mM Sema3A C-terminal region (orange) highlighting the changes of 0.05 mM (or 0.35 mM in disaccharide units) dp14 heparin oligosaccharide binding in the absence (purple) and the presence (turquoise) of 4 mM CSIC02. […] The absolute values of the chemical shift differences between the presence and absence of dp14 are plotted in ppm and calculated comparing with the chemical shifts of the protein alone. […]

[2] = 1D 1H NMR titration with chondroitin sulfate; assay type: binding; settings: increasing amounts of CS, pH 7.5
Description: As a simple way to characterize the GAG binding behavior, we applied the method previously described by Jiao et al., using the cationic dye known as methylene blue (MB) in a colorimetric competition assay. To compare with our previous results for SICHI, we performed similar experimental design and data analysis, using the charge excess at 50% of MB displacement (CE50) as the parameter to compare the respective binding abilities. The four peptoids rendered very similar CE50 values (CE50 = 1.5–1.8, Figure 6a), reflecting the equivalent charge states. However, CSIC02 reached saturation (complete MB displacement) with a lower number of equivalents, which can be due to its slightly larger molecular size that may cause a more efficient interference with MB binding. Next, we assessed the integrity and solubility of CSIC02 by NMR. To characterize its tendency to aggregate in aqueous solution, NMR spectra at increasing concentrations were acquired which show the same sharp signals under all conditions (Figure S13). […] Direct binding of CSIC02 to GAGs was qualitatively assessed by specific NMR experiments.
Figure S14. CSIC02 spectra with increasing amount of Chondroitin sulfate from shark
cartilage (0,5, 1,0. 1,5, 2,0. 2,5 and 3,0 mg). Spectra were acquired in 10 mM Tris-HCl/150
(1 picture or pasted object on this page, not shown here)

CCN(CC)CCN(CC(=O)N(CCN1CCCC1)CC(=O)N(CCC1CCCN1C)CC(N)=O)C(=O)OCc1ccccc1 (centres unmarked) [CSIC02]
effect on dp14 heparin-induced chemical shift perturbations of SCTWT [1]: modest decrease in dp14-induced perturbations
binding to chondroitin sulfate (qualitative) [2]: progressive shifting of CSIC02 resonances
